According to patent publication US10407409B2, “6-(5-hydroxy-1H-pyrazol-1-yl)nicotinamide inhibitors of PHD” (Takeda Pharmaceutical Company Limited, priority 2013, dated 2019):

Experiments:
[1] = target: PHD2 enzyme (residues 181-417) (Homo sapiens (Human), UniProt Q9GZT9); assay: Inhibition of PHD enzyme (LC/MS peptide hydroxylation assay); type: biochemical; settings: PHD2 (residues 181-417) 5 nM, 60 min pre-incubation; -log(IC50), IC50 molar
Method in brief: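 PHD2 (5 nM final) preincubated with inhibitor 60 min at RT in 50 mM HEPES, 50 mM KCl, 0.5 mM TCEP, 2 uM FeCl2, 0.1 mg/ml BSA, pH 7.3. Reaction started with biotin-peptide (1 uM), 2-oxoglutarate (2 uM), ascorbate (1 mM), quenched at 60 min; hydroxylated product by LC/MS, reported as pIC50.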

[2] = test system: HIF1a protein in H9c2 rat cardiomyocytes; assay: Cell-based HIF-alpha stabilization assay (inhibition of PHD in cells); settings: 24 hrs compound incubation, HIF1a protein by ELISA; for EC50: Rattus norvegicus, H9c2, 24 h, read-out: Inhibition of PHD in cells (pEC50) (converted)
Method in brief: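 Rat H9c2 cardiomyocytes, cultured 24 h, were treated 24 h with an 11-point serial dilution of compound. HIF1a in whole-cell lysates was quantified by ELISA as % of the maximal desferrioxamine response. EC50 came from curve fitting; EC50pos is the concentration reaching 50% of the desferrioxamine maximum.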

Sequence of PHD2 enzyme (residues 181-417) (Q9GZT9 181-417): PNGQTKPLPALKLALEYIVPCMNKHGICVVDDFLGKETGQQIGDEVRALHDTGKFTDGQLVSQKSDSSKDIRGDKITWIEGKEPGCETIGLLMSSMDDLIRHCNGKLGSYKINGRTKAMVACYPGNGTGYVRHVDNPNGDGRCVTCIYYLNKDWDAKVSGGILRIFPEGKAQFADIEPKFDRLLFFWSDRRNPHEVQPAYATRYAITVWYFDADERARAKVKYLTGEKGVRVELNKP

Compound | PHD Inhibition (pIC50) [1] | EC50 [2] | Inhibition of PHD in cells (pEC50) [2]
CCCNC(=O)c1ccc(-n2ncc(-c3ccc(C#N)cc3)c2O)nc1 [Example 267, 6-(4-(4-cyanophenyl)-5-hydroxy-1H-pyrazol-1-yl)-N-propylnicotinamide] | 7.36 | 708 nM | –
CN(C)CCNC(=O)c1ccc(-n2ncc(-c3ccc(C#N)cc3)c2O)nc1 [Example 268, 6-(4-(4-cyanophenyl)-5-hydroxy-1H-pyrazol-1-yl)-N-(2-(dimethylamino)ethyl)nicotinamide] | 6.32 | 1950 nM | –
CN(C)CCCNC(=O)c1ccc(-n2ncc(-c3ccc(C#N)cc3)c2O)nc1 [Example 269, 6-(4-(4-cyanophenyl)-5-hydroxy-1H-pyrazol-1-yl)-N-(3-(dimethylamino)propyl)nicotinamide] | 6.82 | 1950 nM | –
CN1CCC(NC(=O)c2ccc(-n3ncc(-c4ccc(C#N)cc4)c3O)nc2)CC1 [Example 270, 6-(4-(4-cyanophenyl)-5-hydroxy-1H-pyrazol-1-yl)-N-(1-methylpiperidin-4-yl)nicotinamide] | 7.34 | 1000 nM | –
CN1CCC(CNC(=O)c2ccc(-n3ncc(-c4ccc(C#N)cc4)c3O)nc2)CC1 [Example 271, 6-(4-(4-cyanophenyl)-5-hydroxy-1H-pyrazol-1-yl)-N-((1-methylpiperidin-4-yl)methyl)nicotinamide] | 6.98 | 1550 nM | –
CNC(=O)c1cnc(-n2ncc(-c3ccc(C#N)cc3)c2O)cc1C [Example 273, 6-(4-(4-cyanophenyl)-5-hydroxy-1H-pyrazol-1-yl)-N,4-dimethylnicotinamide] | 7.06 | 9330 nM | –
CCNC(=O)c1cnc(-n2ncc(-c3ccc(C#N)cc3)c2O)cc1C [Example 274, 6-(4-(4-cyanophenyl)-5-hydroxy-1H-pyrazol-1-yl)-N-ethyl-4-methylnicotinamide] | 7.03 | 6460 nM | –
Cc1cc(-n2ncc(-c3ccc(C#N)cc3)c2O)ncc1C(=O)NC1CC1 [Example 275, 6-(4-(4-cyanophenyl)-5-hydroxy-1H-pyrazol-1-yl)-N-cyclopropyl-4-methylnicotinamide] | 7.03 | 3800 nM | –
Cc1cc(-n2ncc(-c3ccc(C#N)cc3)c2O)ncc1C(=O)N[C@H]1CCOC1 [Example 277, (S)-6-(4-(4-cyanophenyl)-5-hydroxy-1H-pyrazol-1-yl)-4-methyl-N-(tetrahydrofuran-3-yl)nicotinamide] | 6.89 | 7080 nM | –
Cc1cc(-n2ncc(-c3ccc(C#N)cc3)c2O)ncc1C(=O)N[C@H]1CC[C@@H](O)CC1 [Example 278, 6-(4-(4-cyanophenyl)-5-hydroxy-1H-pyrazol-1-yl)-N-((1s,4s)-4-hydroxycyclohexyl)-4-methylnicotinamide] | 7.05 | 3240 nM | –
Cc1cc(-n2ncc(-c3ccc(C#N)cc3)c2O)ncc1C(=O)NCCC1CCCOC1 (stereo not drawn) [Example 279, 6-(4-(4-cyanophenyl)-5-hydroxy-1H-pyrazol-1-yl)-4-methyl-N-(2-(tetrahydro-2H-pyran-3-yl)ethyl)nicotinamide] | 7.1 | 2630 nM | –
O=C(NCc1ccccc1)c1ccc(-n2ncc(-c3ccccn3)c2O)cc1 [Example 280, N-benzyl-4-(5-hydroxy-4-(pyridin-2-yl)-1H-pyrazol-1-yl)benzamide] | 5.69 | 50100 nM | –
N#Cc1ccc(-c2cnn(-c3ccc(C(=O)NCc4ccccc4)cn3)c2O)cc1 [Example 281, N-benzyl-6-(4-(4-cyanophenyl)-5-hydroxy-1H-pyrazol-1-yl)nicotinamide] | 7.37 | 257 nM | –
CCCN1CCN(C(=O)c2ccc(-n3ncc(-c4ccc(C#N)cc4C)c3O)nc2)CC1 [Example 283, 4-(5-hydroxy-1-(5-(4-propylpiperazine-1-carbonyl)pyridin-2-yl)-1H-pyrazol-4-yl)-3-methylbenzonitrile] | 8.60 | – | 5.72
CO[C@H]1CC[C@@H](NC(=O)c2ccc(-n3ncc(-c4ccc(C#N)cc4F)c3O)nc2)CC1 [Example 284, 6-(4-(4-cyano-2-fluorophenyl)-5-hydroxy-1H-pyrazol-1-yl)-N-((1 s,4s)-4-methoxycyclohexyl)nicotinamide] | 8.21 | 1290 nM | –
COCCCCNC(=O)c1ccc(-n2ncc(-c3ccc(C#N)cc3F)c2O)nc1 [Example 285, 6-(4-(4-cyano-2-fluorophenyl)-5-hydroxy-1H-pyrazol-1-yl)-N-(4-methoxybutyl)nicotinamide] | 8.48 | 933 nM | –
Cc1cc(C#N)ccc1-c1cnn(-c2ccc(C(=O)N(C)CCN(C)C)cn2)c1O [Example 286, 6-(4-(4-cyano-2-methylphenyl)-5-hydroxy-1H-pyrazol-1-yl)-N-(2-(dimethylamino)ethyl)-N-methylnicotinamide] | 7.94 | 603 nM | –
Cc1cc(C#N)ccc1-c1cnn(-c2ccc(C(=O)N3CCCN(C)CC3)cn2)c1O [Example 287, 4-(5-hydroxy-1-(5-(4-methyl-1,4-diazepane-1-carbonyl)pyridin-2-yl)-1H-pyrazol-4-yl)-3-methylbenzonitrile] | 8.10 | 3550 nM | –
Cc1cc(C#N)ccc1-c1cnn(-c2ccc(C(=O)N(C)C3CCN(C)CC3)cn2)c1O [Example 289, 6-(4-(4-cyano-2-methylphenyl)-5-hydroxy-1H-pyrazol-1-yl)-N-methyl-N-(1-methylpiperidin-4-yl)nicotinamide] | 8.03 | 1230 nM | –
Cc1cc(C#N)ccc1-c1cnn(-c2ccc(C(=O)N3CCN(C)CC3)cn2)c1O [Example 290, 4-(5-hydroxy-1-(5-(4-methylpiperazine-1-carbonyl)pyridin-2-yl)-1H-pyrazol-4-yl)-3-methylbenzonitrile] | 8.33 | 912 nM | –
Cc1cc(C#N)ccc1-c1cnn(-c2ccc(C(=O)N3CCN(C(C)(C)C)CC3)cn2)c1O [Example 291, 4-(1-(5-(4-(tert-butyl)piperazine-1-carbonyl)pyridin-2-yl)-5-hydroxy-1H-pyrazol-4-yl)-3-methylbenzonitrile] | 8.15 | 977 nM | –
Cc1cc(C#N)ccc1-c1cnn(-c2ccc(C(=O)N3C[C@H]4CN(C)C[C@H]4C3)cn2)c1O [Example 292, 4-(5-hydroxy-1-(5-((3aR,6aS)-5-methyloctahydropyrrolo[3,4-c]pyrrole-2-carbonyl)pyridin-2-yl)-1H-pyrazol-4-yl)-3-methylbenzonitrile] | 8.04 | 407 nM | –
Cc1cc(C#N)ccc1-c1cnn(-c2ccc(C(=O)N3CCC4(CN(C)C4)C3)cn2)c1O [Example 293, 4-(5-hydroxy-1-(5-(2-methyl-2,6-diazaspiro[3.4]octane-6-carbonyl)pyridin-2-yl)-1H-pyrazol-4-yl)-3-methylbenzonitrile] | 8.05 | 324 nM | –
CCCN1CCC(N(C)C(=O)c2ccc(-n3ncc(-c4ccc(C#N)cc4C)c3O)nc2)CC1 [Example 294, 6-(4-(4-cyano-2-methylphenyl)-5-hydroxy-1H-pyrazol-1-yl)-N-methyl-N-(1-propylpiperidin-4-yl)nicotinamide] | 8.22 | 1120 nM | –
Cc1cc(C#N)ccc1-c1cnn(-c2ccc(C(=O)N(C)C3CCN(C4CC4)CC3)cn2)c1O [Example 296, 6-(4-(4-cyano-2-methylphenyl)-5-hydroxy-1H-pyrazol-1-yl)-N-(1-cyclopropylpiperidin-4-yl)-N-methylnicotinamide] | 8.23 | 1000 nM | –
Cc1cc(C#N)ccc1-c1cnn(-c2ccc(C(=O)N3CC(N(C)C4CCC4)C3)cn2)c1O [Example 297, 4-(1-(5-(3-(cyclobutyl(methyl)amino)azetidine-1-carbonyl)pyridin-2-yl)-5-hydroxy-1H-pyrazol-4-yl)-3-methylbenzonitrile] | 8.39 | 525 nM | –
Cc1cc(C#N)ccc1-c1cnn(-c2ccc(C(=O)N3CC(N(C)C4CC4)C3)cn2)c1O [Example 298, 4-(1-(5-(3-(cyclopropyl(methyl)amino)azetidine-1-carbonyl)pyridin-2-yl)-5-hydroxy-1H-pyrazol-4-yl)-3-methylbenzonitrile] | 8.18 | 977 nM | –
Cc1cc(C#N)ccc1-c1cnn(-c2ccc(C(=O)N3CCN(C)CC(F)(F)C3)cn2)c1O [Example 299, 4-(1-(5-(6,6-difluoro-4-methyl-1,4-diazepane-1-carbonyl)pyridin-2-yl)-5-hydroxy-1H-pyrazol-4-yl)-3-methylbenzonitrile] | 8.46 | 1050 nM | –
COCCCNC(=O)c1ccc(-n2ncc(-c3ccc(C#N)cc3C3CC3)c2O)nc1 [Example 300, 6-(4-(4-cyano-2-cyclopropylphenyl)-5-hydroxy-1H-pyrazol-1-yl)-N-(3-methoxypropyl)nicotinamide] | 7.99 | 17.4 nM | –
Cc1cc(C#N)ccc1-c1cnn(-c2ccc(C(=O)N(C)C)cn2)c1O [Example 301, 6-(4-(4-cyano-2-methylphenyl)-5-hydroxy-1H-pyrazol-1-yl)-N,N-dimethylnicotinamide] | 8.67 | 251 nM | –
